In the test the target is T1, LRPPRC (Leucine-rich pentatricopeptide repeat-containing protein) (Homo sapiens, UniProt P42704).
T1 construct: GST fusion)
In words: Intrinsic fluorescence quenching titration of purified LRPPRCΔ[…]; confirmed by BLI (KD […]) and CETSA in A549 and H1299 cells. The format is binding.

pKd: −log10 of the molar value.

T1 sequence (P42704 1121-1394): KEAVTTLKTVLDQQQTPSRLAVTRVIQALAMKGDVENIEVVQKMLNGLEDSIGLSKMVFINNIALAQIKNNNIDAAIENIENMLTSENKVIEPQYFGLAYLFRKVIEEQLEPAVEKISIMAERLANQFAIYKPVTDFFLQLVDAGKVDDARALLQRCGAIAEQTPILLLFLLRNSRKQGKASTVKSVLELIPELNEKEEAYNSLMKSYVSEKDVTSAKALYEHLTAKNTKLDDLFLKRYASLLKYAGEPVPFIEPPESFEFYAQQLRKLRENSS

A word on the pKd: it is −log10 of the Kd, conventionally taken in molar units. The low end stands for a large Kd, the high end for a small Kd. Regarding `C[C@@]1(C(=O)O)CC[C@]2(C)CC[C@]3(C)C4=CC(=O)c5c(cc(O)c(O)c5C=O)[C@]4(C)CC[C@@]3(C)[C@@H]2C1` [T-96, Demethylzeylasteral], the pKd is 4.67.

The record behind these values is paper PMC11660126, “Demethylzeylasteral inhibits oxidative phosphorylation complex biogenesis by targeting LRPPRC in lung cancer” (Journal of Cancer, 2025).
